In one assay the target is T1, human SGLT2 (Homo sapiens, UniProt P31639).
T1 construct: expressed in transfected cells
T1 sequence (P31639 1-672): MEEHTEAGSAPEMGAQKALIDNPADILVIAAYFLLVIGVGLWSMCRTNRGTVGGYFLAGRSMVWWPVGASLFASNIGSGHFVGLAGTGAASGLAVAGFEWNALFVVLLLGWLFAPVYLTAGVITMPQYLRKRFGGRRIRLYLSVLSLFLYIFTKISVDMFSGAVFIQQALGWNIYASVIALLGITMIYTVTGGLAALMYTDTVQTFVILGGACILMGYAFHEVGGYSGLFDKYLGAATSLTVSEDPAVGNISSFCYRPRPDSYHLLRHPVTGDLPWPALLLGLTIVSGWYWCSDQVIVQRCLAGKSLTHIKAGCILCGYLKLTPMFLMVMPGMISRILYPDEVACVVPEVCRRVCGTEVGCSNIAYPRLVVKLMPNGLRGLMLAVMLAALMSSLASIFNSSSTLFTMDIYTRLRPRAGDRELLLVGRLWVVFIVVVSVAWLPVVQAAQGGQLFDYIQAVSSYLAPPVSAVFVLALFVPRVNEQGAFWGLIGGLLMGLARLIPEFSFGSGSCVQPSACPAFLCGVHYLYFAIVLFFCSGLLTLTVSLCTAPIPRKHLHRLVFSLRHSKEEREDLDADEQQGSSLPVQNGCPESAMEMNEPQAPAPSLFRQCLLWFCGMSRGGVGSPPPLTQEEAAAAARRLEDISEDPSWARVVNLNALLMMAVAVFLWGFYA
As to the kind of experiment: Assay for inhibitory effects on human SGLT2 activity (uptake of methyl-α-D-glucopyranoside). Type of assay: cell-based. The conditions noted are these: inhibition of uptake of 14C-labeled methyl-α-D-glucopyranoside (1 mM) in CS2-5E cells (CHO-K1) stably expressing human SGLT2, 37° C., 1 hour. The protocol: Assay for Inhibitory Effects on Human SGLT2 Activity
1) Cloning and Construction of the Vector Expressing Human SGLT2
The cDNA library was prepared for PCR amplification by reverse transcription from total RNA deprived from human kidney (Ori gene) using oligo-dT as a primer. Using this cDNA library as a template, the DNA fragment coding 2 to 2039 bp of human SGLT2 (ACCESSION: M95549, M95299), which was reported by R. G. Wells et al., was amplified by PCR method and inserted into the multi-cloning site of pcDNA3.1(−) (Invitrogen). The DNA sequence inserted was perfectly matched to the previously reported sequence.
2) Establishment of Cell Line Stably Expressing Human SGLT2
The expression vector of human SGLT2 was digested by Sca I into a linear DNA. The linear DNA was transfected into CHO-K1 cells by means of lipofection (Effectene Transfection Reagent: QIAGEN). Neomycin resistant cell lines were selected by culture in the medium containing G418 (1 mg/mL, LIFE TECHNOLOGIES), and then the activity against the uptake of methyl-α-D-glucopyranoside was measured by the method described below. […] CS2-5E cells were cultured in the presence of G418 at 200 μg/mL.
3) Measurement of the Inhibitory Activity Against the Uptake of Methyl-α-D-glucopyranoside (α-MG)
CS2-5E cells were seeded into a 96-well culture plate at a density of 3×10^4 cells/well and cultured for 2 days, and were used in the uptake assay. A mixture of non-labeled (Sigma) and ^14C-labeled α-MG (Amersham Pharmacia Biotech) was added to the uptake buffer (pH 7.4; containing 140 mM sodium chloride, 2 mM potassium chloride, 1 mM calcium chloride, 1 mM magnesium chloride, 10 mM 2-[4-(2-hydroxyethyl)-1-piperazinyl]ethane sulfonic acid and 5 mM tris(hydroxymethyl)aminomethane) at the final concentration of 1 mM. […] Radioactivity was measured by means of micro-scintillation counter TopCount (Packard). One hundred % was set to the difference between the uptake in the control group and the basal uptake, and the uptake of methyl α-D-glucopyranoside at each drug concentration were calculated. […]

The target in the next assay is T2, human SGLT1 (Homo sapiens, UniProt P13866).
T2 construct: expressed in transfected cells
T2 sequence (P13866 1-664): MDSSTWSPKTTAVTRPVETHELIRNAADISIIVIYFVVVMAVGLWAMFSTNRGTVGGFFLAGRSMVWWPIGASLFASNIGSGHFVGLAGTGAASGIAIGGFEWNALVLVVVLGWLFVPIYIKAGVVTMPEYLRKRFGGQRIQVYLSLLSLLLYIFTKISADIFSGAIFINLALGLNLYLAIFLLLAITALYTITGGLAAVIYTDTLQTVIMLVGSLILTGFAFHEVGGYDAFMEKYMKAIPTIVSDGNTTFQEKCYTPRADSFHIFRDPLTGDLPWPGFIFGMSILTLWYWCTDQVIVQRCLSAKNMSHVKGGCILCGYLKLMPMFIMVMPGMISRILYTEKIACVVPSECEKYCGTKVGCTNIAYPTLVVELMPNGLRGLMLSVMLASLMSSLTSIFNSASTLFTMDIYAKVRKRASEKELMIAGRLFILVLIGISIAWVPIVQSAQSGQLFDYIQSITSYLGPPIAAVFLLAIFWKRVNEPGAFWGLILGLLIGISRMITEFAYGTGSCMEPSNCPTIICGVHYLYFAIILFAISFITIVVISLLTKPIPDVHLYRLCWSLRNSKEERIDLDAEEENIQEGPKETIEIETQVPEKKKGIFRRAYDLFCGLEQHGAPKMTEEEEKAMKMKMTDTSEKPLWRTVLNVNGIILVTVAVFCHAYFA
As to the kind of experiment: Assay for inhibitory effects on human SGLT1 activity (uptake of methyl-α-D-glucopyranoside). It is filed as cell-based. The note with it: inhibition of uptake of 14C-labeled methyl-α-D-glucopyranoside (1 mM) in CS1-5-11D cells stably expressing human SGLT1, 37° C., 1 hour. The protocol: Assay for Inhibitory Effects on Human SGLT1 Activity
1) Cloning and Construction of the Vector Expressing Human SGLT1
The cDNA library was prepared for PCR amplification by reverse transcription from total RNA deprived from human small intestine (Ori gene) using oligo-dT as a primer. Using this cDNA library as a template, the DNA fragment coding 1 to 2005 bp of human SGLT1 (ACCESSION: M24847), which was reported by Hediger et al., was amplified by PCR method and inserted into the multi-cloning site of pcDNA3.1(−) (Invitrogen). The DNA sequence inserted was perfectly matched to the previously reported sequence.
2) Establishment of Cell Line Stably Expressing Human SGLT1
The expression vector of human SGLT1 was digested by Sca I into a linear DNA. The linear DNA was transfected into […] cells by means of lipofection (Effectene Transfection Reagent: QIAGEN). Neomycin resistant cell lines were selected by culture in the medium containing G418 (1 mg/mL, LIFE TECHNOLOGIES), and then the activity against the uptake of methyl-αD-glucopyranoside was measured by the method described below. […] CS1-5-11D cells were cultured in the presence of G418 at 200 μg/mL. […]
CS1-5-11D cells were seeded into a 96-well culture plate at a density of 3×10^4 cells/well and cultured for 2 days, and were used in the uptake assay. […] Radioactivity was measured by means of micro-scintillation counter TopCount (Packard). […]

The structures appear in SMILES notation. pIC50: −log10 of the molar value.

`OC[C@H]1O[C@@H](Oc2cccc3occ(CCc4ccncc4)c23)[C@H](O)[C@@H](O)[C@@H]1O` [Example 43, 4-(β-D-Glucopyranosyloxy)-3-[2-(4-pyridyl)ethyl]benzofuran]: the pIC50 against human SGLT2 is 7.92.

`Cc1ccccc1CCc1coc2cccc(O[C@@H]3O[C@H](CO)[C@@H](O)[C@H](O)[C@H]3O)c12` [Example 3, 4-(β-D-Glucopyranosyloxy)-3-[2-(2-methylphenyl)ethyl]-benzofuran] showed a pIC50 against human SGLT2 of 7.39.

Turning to `OC[C@H]1O[C@@H](Oc2cccc3occ(CCc4ccccc4)c23)[C@H](O)[C@@H](O)[C@@H]1O` [Example 2, 4-(β-D-Glucopyranosyloxy)-3-(2-phenylethyl)benzofuran], at human SGLT2, the negative logarithm of the IC50 (pIC50) was 8.22. Compound `OC[C@H]1O[C@@H](Oc2cccc3occ(CCc4ccc(OCCCNC(CO)(CO)CO)cc4)c23)[C@H](O)[C@@H](O)[C@@H]1O` [Example 24, 4-(β-D-Glucopyranosyloxy)-3-[2-(4-{3-[2-hydroxy-1,1-bis(hydroxymethyl)ethylamino]propoxy}phenyl)ethyl]benzofuran] had a pIC50 against human SGLT1 of 7.60.

Turning to `OC[C@H]1O[C@@H](Oc2cc(O)cc3occ(CCc4ccccc4)c23)[C@H](O)[C@@H](O)[C@@H]1O` [Example 7, 4-(β-D-Glucopyranosyloxy)-6-hydroxy-3-(2-phenylethyl)benzofuran], the pIC50 on human SGLT1 was 7.82.

The term pIC50 denotes −log10 of the IC50, conventionally taken in molar units. Low values mean a high IC50, high ones a low IC50.

For the origin of these results see patent US7566699B2, “Fused heterocyclic derivative, medicinal composition containing the same, and medicinal use thereof” (Kissei Pharmaceutical Co., Ltd., priority 2003, dated 2009).
